Six compounds from paper PMC6222422, “Synthesis and Biological Evaluation of Novel Indole-Derived Thioureas” (Molecules : A Journal of Synthetic Chemistry and Natural …, 2018) can be followed below.

Each structure is given as a SMILES string. Bounds are passed on as bounds.

Data set [1] has as its system RSV. The experiment in a line: microbe, parasite or virus in culture. It counts as cell-based, human respiratory syncytial virus. To be noted: human respiratory syncytial virus, Vero 76, read-out: RSV EC50.
Data set [2] can be described thus: in vitro. The conditions noted are these: cattle (Bos taurus).
The test system of data set [3] is BVDV. Kind of data set: microbe, parasite or virus in culture. It counts as cell-based, bovine viral diarrhoea virus. To be noted: for EC50: Bovine viral diarrhea virus isolates and strains, MDBK, in Bos taurus, read-out: BVDV EC50.
A short description of data set [4]: in vitro. To be noted: African green monkey (Cercopithecus aethiops).
Data set [5] relates to Reo-1. Kind of data set: microbe, parasite or virus in culture. It counts as cell-based, reovirus type-1. The conditions noted are these: Reovirus sp., BHK, read-out: Reo-1 EC50.
In data set [6] the test system is HSV-1. The experiment in a line: microbe, parasite or virus in culture. It counts as cell-based, human herpes 1. To be noted: Human alphaherpesvirus 1, Vero 76, read-out: HSV-1 EC50.
Data set [7] concerns VV. Kind of data set: microbe, parasite or virus in culture. It counts as cell-based. To be noted: Orthopoxvirus vaccinia, Vero 76, read-out: VV EC50.
A short description of data set [8]: in vitro. To be noted: human.
In data set [9] the test system is HIV-1. Kind of data set: microbe, parasite or virus in culture. The conditions noted are these: Human immunodeficiency virus 1, MT4, read-out: HIV-1 EC50.
In data set [10] the test system is VSV. Kind of data set: microbe, parasite or virus in culture. The conditions noted are these: Vesicular stomatitis virus, Vero 76, read-out: VSV EC50. It counts as cell-based.
In data set [11] the test system is Sb-1. The experiment in a line: microbe, parasite or virus in culture. It counts as cell-based, poliovirus type-1. To be noted: Enterovirus C, Vero 76, read-out: Sb-1 EC50.
Data set [12] concerns YFV. The experiment in a line: microbe, parasite or virus in culture. It counts as cell-based. To be noted: Yellow fever virus, BHK, read-out: YFV EC50.
Data set [13] relates to CV-B5. The experiment in a line: microbe, parasite or virus in culture. It counts as cell-based, coxsackievirus B5. The conditions noted are these: Enterovirus B, CVB5, Vero 76, read-out: CV-B5 EC50.
Data set [14] in a line: in vitro. The conditions noted are these: Syrian hamster (Mesocricetus auratus).

With `Fc1cccc(NC(=S)NCCc2c[nH]c3ccccc23)c1` [Compound 12, 1-(2-(1H-Indol-3-yl)ethyl)-3-(3-fluorophenyl)thiourea], the melting point (commonly the temperature, or range, at which the solid turns liquid) lay in the range of 162 to 164 °C. Further, the EC50 (commonly the concentration that produces a half-maximal response) in data set [1] was above 60 µM. The CC50 in data set [2] was 49 µM. Further, the EC50 in [3] is above 49 µM. This compound also had a CC50 in [4] of 60 µM. Further, the EC50 in data set [5] is above 16 µM. In data set [6], the EC50 was above 60 µM. Besides, the EC50 in data set [7] is above 60 µM. Besides, the CC50 in data set [8] was 47 µM. Further, the EC50 in data set [9] was above 47 µM. Further, in data set [10], the EC50 is above 60 µM. Further, the EC50 in data set [11] was above 60 µM. In [12], the EC50 is above 16 µM. For the same compound, the EC50 in data set [13] is above 60 µM. In [14], this compound had a CC50 of 16 µM.

For `CCCCc1ccc(NC(=S)NCCc2c[nH]c3ccccc23)c(C)c1` [Compound 27, 1-(2-(1H-Indol-3-yl)ethyl)-3-(4-butyl-2-methylphenyl)thiourea], the melting point fell in the range of 172 to 174 °C. In data set [1], the EC50 is above 12 µM. Besides, in [2], the CC50 came out at 11 µM. The EC50 in data set [3] is above 11 µM. Besides, the CC50 in data set [4] came to 12 µM. For the same compound, in data set [5], the EC50 is above 9.5 µM. Also, in data set [6], the EC50 was above 12 µM. Also, in data set [7], the EC50 is above 12 µM. The compound further displayed a CC50 in data set [8] of 45 µM. Further, the EC50 in [9] was above 45 µM. Besides, the EC50 in [10] is above 12 µM. In addition, the EC50 in data set [11] was above 12 µM. In [12], the EC50 was above 9.5 µM. Besides, in [13], the EC50 is above 12 µM. Further, the CC50 in [14] was determined as 9.5 µM.

Take `Cc1ccc(NC(=S)NCCc2c[nH]c3ccccc23)cc1Cl` [Compound 23, 1-(2-(1H-Indol-3-yl)ethyl)-3-(3-chloro-4-methylphenyl)thiourea]: the melting point fell in the range of 161 to 163 °C. In addition, the EC50 in [1] is above 17 µM. The CC50 in data set [2] was determined as 25 µM. Besides, the EC50 in data set [3] is above 25 µM. The compound also registered a CC50 in [4] of 17 µM. In [5], the concentration for a half-maximal effect (EC50) was above 10 µM. Also, the concentration giving a half-maximal response (EC50) in data set [6] is above 17 µM. Also, the EC50 in [7] is above 17 µM. The same compound registered a CC50 in data set [8] of 44 µM. For the same compound, the EC50 in data set [9] was above 44 µM. In addition, the EC50 in [10] was above 17 µM. The concentration for a half-maximal effect (EC50) in data set [11] is above 17 µM. Also, in data set [12], the EC50 was above 10 µM. Further, the EC50 in data set [13] is above 17 µM. The compound also returned a CC50 in [14] of 10 µM.

In turn, `S=C(NCCc1c[nH]c2ccccc12)Nc1cccc(Br)c1` [Compound 7, 1-(2-(1H-Indol-3-yl)ethyl)-3-(3-bromophenyl)thiourea] displayed a melting point of 152 to 154 °C. For the same compound, the EC50 in data set [1] is above 12 µM. Also, the CC50 in data set [2] was determined as 55 µM. Further, in [3], the “activity against BVDV (in words)” value was “showed activity” and the EC50 amounted to 20 ± 2 µM. Besides, the CC50 in data set [4] amounted to 12 µM. Besides, the EC50 in [5] is above 10 µM. For the same compound, the EC50 in data set [6] is above 12 µM. Besides, the half-maximal effective concentration (EC50) in data set [7] was above 12 µM. The same compound had a CC50 in [8] of 45 µM. In addition, the half-maximal effective concentration (EC50) in [9] was above 45 µM. Further, in data set [10], the EC50 is above 12 µM. Besides, the EC50 in [11] is above 12 µM. Besides, the concentration giving a half-maximal response (EC50) in data set [12] is above 10 µM. Besides, the EC50 in data set [13] is above 12 µM. In addition, the CC50 in [14] was determined as 10 µM.

As for `FC(F)(F)c1cccc(NC(=S)NCCc2c[nH]c3ccccc23)c1` [Compound 24, 1-(2-(1H-Indol-3-yl)ethyl)-3-(3-(trifluoromethyl)phenyl)thiourea], the melting point was 169 to 171 °C. In data set [1], the EC50 was above 16 µM. Also, the CC50 in [2] turned out to be 23 µM. Also, the 50% effective concentration (EC50) in [3] is above 23 µM. In data set [4], this compound returned a CC50 of 16 µM. Also, in [5], the EC50 was above 9 µM. Moreover, the EC50 in data set [6] is above 16 µM. In addition, in data set [7], the EC50 is above 16 µM. In [8], this compound yielded a CC50 of 44 µM. In addition, the EC50 in [9] is above 44 µM. In [10], the EC50 was above 16 µM. In [11], the concentration giving a half-maximal response (EC50) is above 16 µM. In data set [12], the EC50 was above 9 µM. Besides, the half-maximal effective concentration (EC50) in data set [13] was above 16 µM. For the same compound, the CC50 in data set [14] is 9 µM.

On to `Fc1ccc(NC(=S)NCCc2c[nH]c3ccccc23)cc1Cl` [Compound 28, 1-(2-(1H-Indol-3-yl)ethyl)-3-(3-chloro-4-fluorophenyl)thiourea], for which the melting point lay within 162 to 164 °C. Also, the EC50 in data set [1] is above 32 µM. The same compound gave a CC50 in [2] of 37 µM. In addition, in data set [3], the “activity against BVDV (in words)” value is “showed activity” and the EC50 was 13 ± 1.2 µM. Moreover, in data set [4], the CC50 was 32 µM. Also, the EC50 in data set [5] was above 30 µM. Further, the EC50 in data set [6] is above 32 µM. Also, the EC50 in [7] was above 32 µM. Moreover, the CC50 in data set [8] came to 45 µM. Further, in data set [9], the EC50 was above 45 µM. Besides, in [10], the EC50 was above 32 µM. Further, in data set [11], the EC50 was above 32 µM. Moreover, the EC50 in [12] was above 30 µM. In data set [13], the EC50 is 20 ± 2.1 µM. The compound further had a CC50 in data set [14] of 30 µM.
